We go through 17 compounds from patent publication EP1377579B1 (Aventis Pharmaceuticals Inc., priority 2000, dated 2002).

Where a name gives a salt, the structure may show the parent alone.

Assay [1] concerns the target cdk4/cyclin D1 (Homo sapiens, UniProt P11802). The experiment in a line: Cyclin-dependent kinase assay, cdk4/cyclin D1. It counts as biochemical. As to conditions: cyclin D1/cdk4; GST-pRb substrate, 10 µM ATP.
Assay [2] relates to MDA-MB-435. Kind of assay: In vitro proliferation assay (MTT), MDA-MB-435. It counts as cell-based, human. To be noted: Homo sapiens, MDA-MB-435, MTT assay; value (SD, n) where given; read-out: MB-435 Breast (IC50 µM). On the procedure: (§1) The proliferation of tumor cells can be measured using a tetrazolium salt-based assay known as the MTT (3-[4,5-Dimethylthiazol-2-yl]-2,5-diphenyltetrazolium bromide) assay. […] For the assay, the cell lines are plated onto 96 well plates at 1000 to 2500 cells/well (depending on the properties of the individual cell lines), left to attach and recover overnight. […] After 3 days, the cells are incubated with MTT dye (3-[4,5-Dimethylthiazol-2-yl]-2,5-diphenyltetrazolium bromide, Sigma # M5655, 10 mg/ml in Hank's Buffered Saline) to estimate the amount of live cells remaining vs. concentration for the test compounds. […] The MTT and culture medium is then removed from the cultures and 200 µl of DMSO is added to solubilize the dye from the cell layer. The absorbance at 570 nm is determined for each culture using a Spectramax plate reader (Molecular Devices).
(§2) IC50s were determined from the raw data from either the MTT or SRB assays.
(§3) All of the cell lines were obtained from American Type Tissue Collection, with the ATCC accession number in parentheticals. MCF-7 and MDA-MB-231 cells were grown in improved minimum essential medium (Biofluids) without phenol red, supplemented with 5 % fetal bovine serum, 0.01 mg/ml gentamicin and 3 mM L-glutamine.

In assay [3] the test system is PC-3. Kind of assay: In vitro proliferation assay (MTT), PC-3. It counts as cell-based, human. As to conditions: Homo sapiens, PC-3, MTT assay; value (SD, n) where given; read-out: PC-3 Prostate (IC50 µM). On the procedure: as §1, §2, §3
A general note: Tetrazolium assays rely on reduction of a dye to a coloured formazan, in cell work by metabolically active cells.

The target of assay [4] is cdk1/cyclin B (Homo sapiens, UniProt P06493). The experiment in a line: Cyclin-dependent kinase assay, cdk1/cyclin B. To be noted: CDK1 IC50, nM, Histone H1, 10 µM ATP.
Sequence of cdk1/cyclin B (P06493 whole entry): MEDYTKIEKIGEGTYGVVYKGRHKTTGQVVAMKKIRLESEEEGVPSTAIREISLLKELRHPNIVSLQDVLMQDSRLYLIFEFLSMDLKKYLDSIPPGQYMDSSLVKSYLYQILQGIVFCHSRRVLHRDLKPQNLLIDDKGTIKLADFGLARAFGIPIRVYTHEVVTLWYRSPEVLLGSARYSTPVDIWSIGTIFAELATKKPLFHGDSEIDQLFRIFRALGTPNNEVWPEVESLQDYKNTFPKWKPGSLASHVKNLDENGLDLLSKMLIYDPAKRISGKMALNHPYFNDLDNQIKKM
Sequence of cdk1/cyclin B (P14635 whole entry partner): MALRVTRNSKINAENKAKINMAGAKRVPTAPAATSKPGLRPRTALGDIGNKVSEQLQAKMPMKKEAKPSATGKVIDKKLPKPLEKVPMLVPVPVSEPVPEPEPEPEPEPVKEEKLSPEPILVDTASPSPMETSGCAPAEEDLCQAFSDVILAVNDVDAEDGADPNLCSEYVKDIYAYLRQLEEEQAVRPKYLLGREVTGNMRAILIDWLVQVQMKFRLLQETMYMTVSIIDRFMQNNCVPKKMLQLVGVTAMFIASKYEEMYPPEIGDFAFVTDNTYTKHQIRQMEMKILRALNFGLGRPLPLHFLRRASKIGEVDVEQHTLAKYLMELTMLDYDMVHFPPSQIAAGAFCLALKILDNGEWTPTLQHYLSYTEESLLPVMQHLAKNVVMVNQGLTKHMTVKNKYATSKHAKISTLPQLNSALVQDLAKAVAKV
Assay [5] concerns the target cdk2/cyclin E (Homo sapiens, UniProt P24941). The experiment in a line: Cyclin-dependent kinase assay, cdk2/cyclin E. To be noted: CDK2 IC50, nM, GST-pRb substrate, 10 µM ATP.

Sequence of cdk4/cyclin D1 (P11802 whole entry): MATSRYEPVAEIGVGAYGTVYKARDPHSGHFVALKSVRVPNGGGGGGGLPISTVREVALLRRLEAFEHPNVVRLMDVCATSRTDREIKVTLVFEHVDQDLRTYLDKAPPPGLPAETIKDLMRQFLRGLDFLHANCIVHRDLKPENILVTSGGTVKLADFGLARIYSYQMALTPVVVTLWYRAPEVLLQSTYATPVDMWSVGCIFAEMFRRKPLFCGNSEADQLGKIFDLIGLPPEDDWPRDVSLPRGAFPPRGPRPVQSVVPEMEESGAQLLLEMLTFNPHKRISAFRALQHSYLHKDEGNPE
Sequence of cdk4/cyclin D1 (P24385 whole entry partner): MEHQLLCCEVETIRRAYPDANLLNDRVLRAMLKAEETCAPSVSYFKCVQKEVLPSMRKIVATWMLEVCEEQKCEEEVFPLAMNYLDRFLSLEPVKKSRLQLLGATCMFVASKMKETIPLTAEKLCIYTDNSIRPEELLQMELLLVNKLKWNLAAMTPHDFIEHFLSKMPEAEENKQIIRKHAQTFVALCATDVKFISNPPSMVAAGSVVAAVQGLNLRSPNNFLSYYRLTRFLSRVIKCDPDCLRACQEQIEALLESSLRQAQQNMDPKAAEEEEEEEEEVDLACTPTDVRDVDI

What is called IC50 is the concentration needed to halve the response being measured. As to `CCC(=O)N1CCC(Nc2nc(N[C@H]3CC[C@H](N)CC3)nc3c2ncn3C2CCCC2)CC1` [compound 53, trans-1-{4-[2-(4-Amino-cyclohexylamino)-9-cyclopentyl-9H-purin-6-ylamino]-piperidin-1-yl}-propan-1-one dihydrochloride], the IC50 is 934 nM in assay [1]; 1.17 µM in assay [2]; 0.88 µM in assay [3]; 40 nM in assay [4]; 80 nM in assay [5].
For `N[C@H]1CC[C@H](Nc2nc(NC3CCN(S(=O)(=O)c4ccccc4Br)CC3)c3ncn(C4CCCC4)c3n2)CC1` [compound 136, trans-N^2-(4-Amino-cyclohexyl)-9-cyclopentyl-N^6-[1-(2-bromo-benzenesulfonyl)-piperidin-4-yl]-9H-purine-2,6-diamine dihydrochloride] the same measures were 10 nM, 0.44 µM, 0.68 µM, 50 nM and 37 nM.
As to `N#Cc1cccc(NC(=O)N2CCC(Nc3nc(N[C@H]4CC[C@H](N)CC4)nc4c3ncn4C3CCCC3)CC2)c1` [compound 194, trans-4-[2-(4-Amino-cyclohexylamino)-9-cyclopentyl-9H-purin-6-ylamino]-piperidine-1-carboxylic acid (3-cyano-phenyl)-amide dihydrochloride], the IC50 in assay [1] is 88 nM; in assay [2] it was 0.72 µM; in assay [3] it was 0.89 µM; in assay [4], 40 nM; in assay [5] it was 15 nM.
`N[C@H]1CC[C@H](Nc2nc(NC3CCN(C(=O)c4ccc(Cl)c(Cl)c4)CC3)c3ncn(C4CCCC4)c3n2)CC1` [compound 15, trans-1-{4-[2-(4-Amino-cyclohexylamino)-9-cyclopentyl-9H-purin-6-ylamino]-piperidin-1-yl}-1-(3,4-dichloro-phenyl)-methanone]: the IC50 in assay [1] came to 732 nM; in assay [2], 0.67 µM; in assay [3], 0.74 µM; in assay [4] it was 61 nM; in assay [5], 291 nM.
`N[C@H]1CC[C@H](Nc2nc(NC3CCN(C(=O)C4CCCCC4)CC3)c3ncn(C4CCCC4)c3n2)CC1` [compound 55, trans-1-{4-[2-(4-Amino-cyclohexylamino)-9-cyclopentyl-9H-purin-6-ylamino]-piperidin-1-yl}-1-cyclohexyl-methanone dihydrochloride]: the half-inhibitory concentration (IC50) in assay [1] worked out at 621 nM; in assay [2], 0.41 µM; in assay [3] it was 0.57 µM; in assay [4], 99 nM; in assay [5], 56 nM.
For `CCCCOc1ccc(C(=O)N2CCC(Nc3nc(N[C@H]4CC[C@H](N)CC4)nc4c3ncn4C3CCCC3)CC2)cc1` [compound 18, trans-1-{4-[2-(4-Amino-cyclohexylamino)-9-cyclopentyl-9H-purin-6-ylamino]-piperidin-1-yl}-1-(4-butoxy-phenyl)-methanone] the same measures were 1490 nM, 2.76 µM, 3.43 µM, 506 nM and 336 nM.
Regarding `N[C@H]1CC[C@H](Nc2nc(NC3CCN(S(=O)(=O)c4ccc5ccccc5c4)CC3)c3ncn(C4CCCC4)c3n2)CC1` [compound 116, trans-N^2-(4-Amino-cyclohexyl)-9-cyclopentyl-N^6-[1-(naphthalene-2-sulfonyl)-piperidin-4-yl]-9H-purine-2,6-diamine dihydrochloride], the IC50 in assay [1] came to 382 nM; in assay [2], 0.64 µM; in assay [3] it was 1.15 µM; in assay [4] it was 18 nM; in assay [5] it was 32 nM.
For `CCCCC(CC)C(=O)N1CCC(Nc2nc(N[C@H]3CC[C@H](N)CC3)nc3c2ncn3C2CCCC2)CC1` (mixture of isomers) [compound 57, (±)-trans-1-{4-[2-(4-Amino-cyclohexylamino)-9-cyclopentyl-9H-purin-6-ylamino]-piperidin-1-yl}-2-ethyl-hexan-1-one dihydrochloride] the same measures were 1300 nM, 0.96 µM, 1.13 µM, 193 nM and 480 nM.
For `COc1ccc(NC(=O)N2CCC(Nc3nc(N[C@H]4CC[C@H](N)CC4)nc4c3ncn4C3CCCC3)CC2)cc1` [compound 153, trans-4-[2-(4-Amino-cyclohexylamino)-9-cyclopentyl-9H-purin-6-ylamino]-piperidine-1-carboxylic acid (4-methoxy-phenyl)-amide dihydrochloride] the same measures were 444 nM, 0.38 µM, 0.45 µM, 20 nM and 30 nM.
The like results for `CCOC(=O)N1CCC(Nc2nc(N[C@H]3CC[C@H](N)CC3)nc3c2ncn3C(C)C)CC1` [compound 104, trans-4-[2-(4-Amino-cyclohexylamino)-9-isopropyl-9H-purin-6-ylamino]-piperidine-1-carboxylic acid ethyl ester dihydrochloride] were, in that order, 8000 nM, 2.27 µM, 1.21 µM, 750 nM and 731 nM.
With `N[C@H]1CC[C@H](Nc2nc(NC3CCN(C(=O)c4cc(C(F)(F)F)ccc4F)CC3)c3ncn(C4CCCC4)c3n2)CC1` [compound 69, trans-1-{4-[2-(4-Amino-cyclohexylamino)-9-cyclopentyl-9H-purin-6-ylamino]-piperidin-1-yl}-1-(2-fluoro-5-trifluoromethyl-phenyl)-methanone], the IC50 in assay [1] was 852 nM; in assay [2] it was 0.48 µM; in assay [3] it was 0.35 µM; in assay [4] it was 48 nM; in assay [5], 84 nM.
As for `N[C@H]1CC[C@H](Nc2nc(NC3CCN(S(=O)(=O)c4ccc(I)cc4)CC3)c3ncn(C4CCCC4)c3n2)CC1` [compound 122, trans-N^2-(4-Amino-cyclohexyl)-9-cyclopentyl-N^6-[1-(4-iodo-benzenesulfonyl)-piperidin-4-yl]-9H-purine-2,6-diamine dihydrochloride], the IC50 was found to be 590 nM in assay [1]; 0.48 µM in assay [2]; 0.65 µM in assay [3]; 10 nM in assay [4]; 38 nM in assay [5].
Regarding `COc1cc(COC(=O)N2CCC(Nc3nc(N[C@H]4CC[C@H](N)CC4)nc4c3ncn4C3CCCC3)CC2)c([N+](=O)[O-])cc1OC` [compound 101, trans-4-[2-(4-Amino-cyclohexylamino)-9-cyclopentyl-9H-purin-6-ylamino]-piperidine-1-carboxylic acid 4,5-dimethoxy-2-nitro-benzyl ester dihydrochloride], the IC50 amounted to 0.24 µM in assay [2], 0.27 µM in assay [3], 31 nM in assay [4] and 80 nM in assay [5].
As to `NC1CCC(Nc2nc(NC3CCN(C(=O)C4CC4c4ccccc4)CC3)c3ncn(C4CCCC4)c3n2)CC1` (racemic) [compound 43, (±)-trans-1-{4-[2-(4-Amino-cyclohexylamino)-9-cyclopentyl-9H-purin-6-ylamino]-piperidin-1-y1}-1-(2-phenyl-cyclopropyl)-methanone dihydrochloride], the values for the IC50 in assay [2], in assay [3] and in assay [5] were 0.47 µM, 0.59 µM and 77 nM, respectively.
The like results for `CC(C)=CC(=O)N1CCC(Nc2nc(N[C@H]3CC[C@H](N)CC3)nc3c2ncn3C2CCCC2)CC1` [compound 30, trans 1-{4-[2-(4-Amino-cyclohexylamino)-9-cyclopentyl-9#H!-purin-6-ylamino]-piperidin-1-yl}-3-methyl-but-2-en-1-one dihydrochloride] were, in that order, 0.75 µM, 0.8 µM and 77 nM.
For `Cc1cccc(NC(=O)N2CCC(Nc3nc(N[C@H]4CC[C@H](N)CC4)nc4c3ncn4C3CCCC3)CC2)c1` [compound 210, trans-4-[2-(4-Amino-cyclohexylamino)-9-cyclopentyl-9H-purin-6-ylamino]-piperidine-1-carboxylic acid (3-methyl-phenyl)-amide dihydrochloride], the IC50 in assay [1] was found to be 74 nM; in assay [4], 20 nM; in assay [5], 28 nM.
Turning to `N[C@H]1CC[C@H](Nc2nc(NC3CCN(S(=O)(=O)c4cccs4)CC3)c3ncn(C4CCCC4)c3n2)CC1` [compound 128, trans-N^2&-(4-Amino-cyclohexyl)-9-cyclopentyl-N^6-[1-(thiophene-2-sulfonyl)-piperidin-4-yl]-9H-purine-2,6-diamine dihydrochloride], the IC50 is 0.49 µM in assay [2], 0.57 µM in assay [3] and 7 nM in assay [5].
